Data: article PMC9679998 (ACS Chemical Biology, 2022)

Tests used:
[1] = target: T1, adenosine A1 receptor (A1AR) (Homo sapiens, UniProt P30542); test: single-point [3H]DPCPX radioligand displacement at […] ([…])
T1 construct: gene ADORA1
T1 sequence (P30542 1-326): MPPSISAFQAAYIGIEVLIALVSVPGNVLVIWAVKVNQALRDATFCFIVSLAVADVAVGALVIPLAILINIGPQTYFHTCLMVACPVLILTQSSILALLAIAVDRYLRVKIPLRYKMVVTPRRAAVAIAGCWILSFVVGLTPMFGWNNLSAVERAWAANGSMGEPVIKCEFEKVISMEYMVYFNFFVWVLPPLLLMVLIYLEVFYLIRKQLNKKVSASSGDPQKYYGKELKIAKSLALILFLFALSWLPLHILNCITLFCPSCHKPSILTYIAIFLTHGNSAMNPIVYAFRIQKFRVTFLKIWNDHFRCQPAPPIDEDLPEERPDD

[2] = target: T1, adenosine A1 receptor (A1AR); test: [3H]DPCPX radioligand displacement on CHO-hA1AR membranes with […] h or […] h preincubation (apparent pKi […] and […]), wash-out, gel labeling, pull-down LC-MS/MS; format: binding

Row | SMILES | % displacement at 1 μM [1] | Ki [2] [nM]
1 | C#CCNc1nc(SCCCNC(=O)c2ccc(S(=O)(=O)F)cc2)c(C#N)c(-c2ccc3c(c2)OCO3)c1C#N [compound 1, 1] | ~ 70 | –
2 | C#CCN(CCCSc1nc(N)c(C#N)c(-c2ccc3c(c2)OCO3)c1C#N)C(=O)c1ccc(S(=O)(=O)F)cc1 [compound 4, LUF7909] | – | 16
